Experimental data: paper PMC2714474, “Extreme variability in the formation of chlorpyrifos oxon (CPO) in patients poisoned by chlorpyrifos (CPF)” (Biochemical Pharmacology, 2009)

How the values were obtained:
[1] = test system: BChE; conditions: cited from earlier work
[2] = biological target: T1, RBC acetylcholinesterase (AChE; EC 3.1.1.7) (Homo sapiens, UniProt P22303); experiment: RBC-AChE activity in CPF-poisoned patients (modified Ellman assay); assay type: in vivo
T1 construct: from tissue; host or cells: red blood cells (diluted whole blood) of chlorpyrifos-poisoned patients
T1 sequence (P22303 32-617 isoform P22303-2 limits assumed): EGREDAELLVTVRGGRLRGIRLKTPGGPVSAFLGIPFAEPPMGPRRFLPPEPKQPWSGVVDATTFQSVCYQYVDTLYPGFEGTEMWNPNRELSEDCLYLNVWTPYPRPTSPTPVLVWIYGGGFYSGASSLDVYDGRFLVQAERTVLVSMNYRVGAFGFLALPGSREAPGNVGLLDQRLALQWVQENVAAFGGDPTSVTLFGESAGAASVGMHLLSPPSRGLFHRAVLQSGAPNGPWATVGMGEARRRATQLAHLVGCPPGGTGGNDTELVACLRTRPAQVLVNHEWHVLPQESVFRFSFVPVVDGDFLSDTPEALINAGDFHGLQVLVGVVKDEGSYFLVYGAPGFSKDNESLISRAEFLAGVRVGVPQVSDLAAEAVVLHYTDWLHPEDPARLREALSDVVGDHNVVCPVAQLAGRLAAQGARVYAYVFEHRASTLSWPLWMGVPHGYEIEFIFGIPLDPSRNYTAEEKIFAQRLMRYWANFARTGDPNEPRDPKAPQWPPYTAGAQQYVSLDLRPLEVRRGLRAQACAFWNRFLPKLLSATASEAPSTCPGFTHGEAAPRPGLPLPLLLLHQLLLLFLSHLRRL
Procedure: (§1) Laboratory analyses were conducted in Munich, Germany. AChE activity was determined in native RBCs (AChE in vivo) and after reactivation with supra-therapeutic obidoxime (AChE in vitro) to estimate the reactivatable fraction. These assays were performed using a modified Ellman assay as described. BChE activity and inhibitory activity of plasma were assessed as reported. In short, inhibitory activity of patient plasma was tested by incubating 3 volumes of hemolysate (3 g Hb/100 mL 0.1 M phosphate buffer, pH 7.4; washed red blood cells from a healthy donor) with 1 volume of patient plasma at 37 °C for 60 min.

[3] = biological target: butyrylcholinesterase (BChE; EC 3.1.1.8) (Homo sapiens, UniProt P06276); experiment: BChE activity in plasma of CPF-poisoned patients; assay type: in vivo; conditions: one patient, 70 min after CPF ingestion
Chain of butyrylcholinesterase (BChE; EC 3.1.1.8) (P06276 29-602): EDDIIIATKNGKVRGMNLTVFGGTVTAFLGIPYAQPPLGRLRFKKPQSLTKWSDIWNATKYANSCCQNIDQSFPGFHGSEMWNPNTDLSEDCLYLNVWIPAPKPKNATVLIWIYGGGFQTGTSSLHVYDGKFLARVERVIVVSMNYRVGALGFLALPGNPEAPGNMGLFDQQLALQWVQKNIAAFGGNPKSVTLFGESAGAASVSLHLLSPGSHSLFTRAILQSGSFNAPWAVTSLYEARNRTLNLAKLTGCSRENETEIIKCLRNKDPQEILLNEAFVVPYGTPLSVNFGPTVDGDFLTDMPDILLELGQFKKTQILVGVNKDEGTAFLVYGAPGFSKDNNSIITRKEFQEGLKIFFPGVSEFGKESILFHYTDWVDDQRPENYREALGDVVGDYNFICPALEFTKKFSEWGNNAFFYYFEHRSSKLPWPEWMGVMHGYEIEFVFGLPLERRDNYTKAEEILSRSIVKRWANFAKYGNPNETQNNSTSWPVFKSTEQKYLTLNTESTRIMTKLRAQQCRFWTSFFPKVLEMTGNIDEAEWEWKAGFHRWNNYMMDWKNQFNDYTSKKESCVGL
Procedure: as §1

[4] = test system: CYP2B6; conditions: read-out: Km of CPF desulfuration; human hepatic CYP2B6; cited from earlier work
[5] = test system: CYP3A4; conditions: read-out: Km of CPF desulfuration; human hepatic CYP3A4; cited from earlier work
[6] = Plasma CPF concentration in CPF-poisoned patients (HPLC)
Procedure: (§2) Serial blood samples stem from patients with acute chlorpyrifos poisoning who were enrolled in two randomised controlled studies (RCT1: ISRCTN02920054 and RCT2: ISRCTN55264358). The studies were performed in Sri Lankan hospitals in Anuradhapura and Polonnaruwa aimed at evaluating the efficacy of oral superactivated charcoal (RCT 1) or pralidoxime (RCT 2) in symptomatic organophosphorus pesticide poisoning. Additional patients were recruited in a prospective cohort study in Nuwara Eliya that was assessing changes in neuromuscular junctional function in organophosphorus pesticide poisoning. […] Treatment consisted of fluid resuscitation and atropine as described [15] and pralidoxime chloride 1 g every 6 for 48 h (RCT1 and Nuwara Eliya cohort), although there was no strict adherence to this regimen. Patients in RCT2 were randomised to receive pralidoxime (2 g pralidoxime chloride loading dose over 20 min, then 0.5 g/h until a maximum of 7 days) or an equal volume of normal saline in addition to the supportive therapy mentioned above. The blood samples were collected between 25 May 2004 and 18 October 2006.
(§3) Blood samples were collected into tubes containing EDTA prior to pralidoxime, then at 1, 4, 12, and 24 h after administration, then once daily until discharge or death. A 0.2 mL blood sample was diluted at the bedside immediately after collection with 4 mL of ice-cold saline and frozen to −23 °C until analysis of AChE activity. The remaining sample was promptly centrifuged and the aspirated plasma frozen at −23 °C until analysis of BChE activity, inhibitory activity, and the concentration of CPF and CPO [15].
CPF was determined by reversed phase HPLC with detection at 288 nm. Specifically, 0.5 mL plasma was mixed with 10 μL of 500 μM fenitrothion as internal standard to control the extraction yield. The plasma was extracted twice with 1 mL n-hexane for 1 min and residual lipoproteins in the combined hexane phases were precipitated with 50 μL 1 M perchloric acid, followed by centrifugation (10.000 rpm for 1 min). The hexane phase was transferred in a borosilica vial and 10 μL of DMSO was added as keeper. Hexane was evaporated at approximately 40 °C for 30 min in a Speed-Vac-Concentrator. The residue was dissolved in 90 μL of methanol:water (70/30, v/v) and 50 μL were applied to LiChrosphere 100 RP-18, 5 μm, 125 mm × 4 mm (E. Merck, Darmstadt, Germany) and eluted at a flow rate of 1 mL/min by gradient elution. […] Typically, fenitrothion was eluted after 3.3 min and chlorpyrifos after 11.5 min. The lower limit of quantification (LOQ) was 0.1 μM in plasma.

[7] = test system: human diethylphosphoryl-AChE; conditions: human red blood cells in vitro, cited from earlier work
[8] = Ratio CPO/CPF in plasma of CPF-poisoned patients; assay type: in vivo, human
Source text: Data were excluded when CPF and/or CPO were below the LOQs or when the time of ingestion or blood sampling was ambiguous. […] In these cases significant post-sampling reactions had to be suspected.

[9] = test system: human red blood cell AChE; experiment: Inhibition kinetics of human red blood cell AChE by CPO; assay type: biochemical; conditions: 11.3 nM AChE, 20 nM CPO
Source text: The basis for the calculation of free CPO is the equation given below: [E]/[EP+EPOx]=kr/ki×[P]×(1+KD/[Ox]) E = active enzyme; EP = phosphorylated, but unaged enzyme; EPOx = complex of oxime and phosphorylated, but unaged enzyme; [EP + EPOx] is the reactivatable enzyme = AChE in vitro–AChE in vivo; kr is the first-order reactivation rate constant; KD is the dissociation constant of the complex EPOx; ki is the second-order inhibition rate constant; [P] is the oxon concentration; [Ox] is the oxime concentration.
The fraction of active test AChE upon incubation with known amounts of CPO in plasma samples was calculated discretely in 1-min increments using the following equation: E=E0−ki×(E−EP)×0.15×(CPO0−EP), with E0 and CPO0 being the AChE and total CPO concentration at t = 0 (the factor 0.15 corrects for the fraction not bound reversibly to albumin).

[10] = test system: bovine serum albumin; experiment: Hydrolysis / inactivation of CPO by serum albumin; assay type: biochemical; conditions: 20 nM CPO, 1% albumin in inhibition assay, assuming human serum albumin has similar constants as BSA
[11] = biological target: T2, RBC-AChE (Homo sapiens, UniProt P22303); experiment: Inhibitory activity of patient plasma towards RBC-AChE of a healthy donor; assay type: biochemical; conditions: EDTA-based plasma, absence of pralidoxime
T2 construct: washed red blood cells from a healthy donor; from tissue; host or cells: haemolysate of washed red blood cells from a healthy donor
T2 sequence (P22303 32-617 isoform P22303-2 limits assumed): as the sequence (P22303 32-617 isoform P22303-2 limits assumed) above
Procedure: as §1

[12] = test system: human red blood cell AChE; set-up: method as in PMID 15181665; conditions: cited from earlier work
[13] = test system: bovine serum albumin; conditions: pH 7.4 and 37 °C, cited from earlier work
[14] = Plasma CPO concentration in CPF-poisoned patients (enzyme-based assay with horse BChE); conditions: median (IQR)
Procedure: as §2, §3
CPO was determined by an enzyme-based assay as described recently [9]. In short, CPO was extracted with n-pentane and the reconstituted residue titrated with purified horse BChE, allowing an LOQ of 0.5 nM. The data were corrected for 83% recovery of CPO from plasma [9].

## CCOP(=O)(OCC)Oc1cc(C)nc(C(C)C)n1 [diazoxon, reference compound]
[1]
  reactivity in inhibiting BChE, times less than CPO: 20 times

## CCOP(=S)(OCC)Oc1nc(Cl)c(Cl)cc1Cl [CPF, Chlorpyrifos]
[2]; one patient, 70 min after CPF ingestion
  AChE activity, of normal: < 10%
[3]
  BChE activity, of normal: less than 2%
[4]
  Km: ~1000 nM
[5]
  Km: ~30 µM
[6]; 0–4 h post poisoning, median (interquartile range), n=52
  CPF plasma concentration: 2.54 (1.6–4.7) μM
[6]; 4–8 h post poisoning, median (IQR), n=67
  CPF plasma concentration: 1.65 (0.7–3.2) μM
[6]; 8–16 h post poisoning, median (IQR), n=59
  CPF plasma concentration: 0.70 (0.4–1.2) μM
[6]; 16–24 h post poisoning, median (IQR), n=30
  CPF plasma concentration: 0.44 (0.3–1.5) μM
[6]; 24–36 h post poisoning, median (IQR), n=45
  CPF plasma concentration: 0.47 (0.3–1.1) μM
[6]; 36–60 h post poisoning, median (IQR), n=41
  CPF plasma concentration: 0.66 (0.2–1.0) μM
[6]; 60–84 h post poisoning, median (IQR), n=27
  CPF plasma concentration: 0.46 (0.2–0.8) μM
[6]; 84–120 h post poisoning, median (IQR), n=28
  CPF plasma concentration: 0.39 (0.2–0.7) μM

## C[n+]1ccccc1/C=N/O [pralidoxime]
[2]; patient A, continuous pralidoxime infusion given for 5 days
  AChE reactivation (fraction of active enzyme from reactivatable pool): ~90%
[7]
  kr, first-order reactivation rate constant: 0.3 min⁻¹
[7]; read-out: KD, dissociation constant of the complex EPOx
  Kd: 330 µM

## Chlorpyrifos oxon [CPO]
[8]; 0–4 h post poisoning, median (IQR) of individual sample ratios
  CPO/CPF × 1000: 4.2 (1.9–9.5)
[8]; 4–8 h post poisoning, median (IQR)
  CPO/CPF × 1000: 6.8 (4.3–14.0)
[8]; 8–16 h post poisoning, median (IQR)
  CPO/CPF × 1000: 17.5 (9.2–31.6)
[8]; 16–24 h post poisoning, median (IQR)
  CPO/CPF × 1000: 14.2 (10.5–42.6)
[8]; 24–36 h post poisoning, median (IQR)
  CPO/CPF × 1000: 28.6 (11.3–44.4)
[8]; 24–120 h, steady-state, high individuals
  ratio CPO/CPF, other individuals: > 0.05
[8]; 24–120 h, steady-state, low individuals
  ratio CPO/CPF, some individuals: below 0.01
[8]; 36–60 h post poisoning, median (IQR)
  CPO/CPF × 1000: 29.2 (14.4–70.7)
[8]; 60–84 h post poisoning, median (IQR)
  CPO/CPF × 1000: 37.3 (12.7–65.3)
[8]; 84–120 h post poisoning, median (IQR)
  CPO/CPF × 1000: 25.0 (15.4–53.6)
[8]; between 30 and 72 h
  ratio of CPO/CPF (apparent steady-state mean): 0.03
[8]; first few hours after ingestion
  ratio of CPO/CPF (mean): 0.005
[8]; period between 0 and 4 h after ingestion
  ratio of CPO/CPF: less than 0.005
[8]; period between 24 and 120 h
  ratio of CPO/CPF on average: ~0.03
[9]
  (initial) AChE inhibition rate: 1.35 nM/min
[10]
  rate of CPO inactivation by albumin: 0.45 nM/min
[11]
  fraction of CPO capable of inhibiting AChE: roughly 2/3
[12]
  ki, second-order inhibition rate constant: 6e+06 M⁻¹ min⁻¹
[1]
  reaction faster with BChE than with AChE: more than 2 orders of magnitude
[13]
  Vmax of CPO 'hydrolysis' by bovine serum albumin: 0.9 nmol/min/mg protein
[13]; read-out: Km of CPO 'hydrolysis' by bovine serum albumin
  Km: 400 µM
[14]; 0–4 h post CPF poisoning, n=52
  CPO plasma concentration: 10.1 (4.5–22.2) nM
[14]; 4–8 h post CPF poisoning, n=67
  CPO plasma concentration: 11.9 (6.5–21.5) nM
[14]; 8–16 h post CPF poisoning, n=59
  CPO plasma concentration: 12.7 (5.5–22.5) nM
[14]; 16–24 h post CPF poisoning, n=30
  CPO plasma concentration: 9.6 (4.1–30.1) nM
[14]; 24–36 h post CPF poisoning, n=45
  CPO plasma concentration: 14.1 (4.7–34.5) nM
[14]; 36–60 h post CPF poisoning, n=41
  CPO plasma concentration: 16.7 (3.4–68.4) nM
[14]; 60–84 h post CPF poisoning, n=27
  CPO plasma concentration: 22.7 (2.2–59.9) nM
[14]; 84–120 h post CPF poisoning, n=28
  CPO plasma concentration: 7.1 (4.2–40.2) nM
